Results on 103 compounds are retold here after PubChem BioAssay AID608 (Sanford-Burnham Center for Chemical Genomics, 2007).

Molecules are shown by their SMILES. Several values for one entry are separate records, joined by “and”; a condition that tells them apart may be missing. Equal values may be shown once. Activity calls are given as the source filed them. The rule behind the calls is not given here.

The target in this assay is Peptidyl-prolyl cis-trans isomerase FKBP1A (Homo sapiens) (UniProt P62942). Nature of the assay: FKBP12 binders, biophysical, NMR detection (AID 608). Conditions: NMR binding, purified FKBP12.
Sequence of Peptidyl-prolyl cis-trans isomerase FKBP1A (Homo sapiens) (P62942 whole entry, looked up): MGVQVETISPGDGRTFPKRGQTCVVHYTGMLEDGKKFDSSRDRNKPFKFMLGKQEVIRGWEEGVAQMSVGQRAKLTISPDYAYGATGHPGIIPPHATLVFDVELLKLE
The term Kd denotes the equilibrium constant for the complex coming apart. Consider `CC(C)=CC(=O)Nc1ccc2c(c1)OCO2`, for which the Kd was > 4 mM (inactive).

As for `O=C(O)CSc1nc2ccccc2c(=O)[nH]1`, the Kd was > 4 mM (inactive).

For the compound `Cc1ccc(OCC(=O)n2cnnc2N)c(C)c1`, the Kd is > 4 mM (inactive).

For `CCc1noc(C)c1C(=O)Nc1ncc(C)s1`, the Kd is > 4 mM (inactive).

For the compound `Cc1ccc(C)c(C(=O)NCc2ccncc2)c1`, the Kd was > 4 mM (inactive).

Take `C=C1C2CC[C@@]3(C)[C@H](c4ccoc4)OC(=O)C[C@]13O[C@H]1CC(=O)C(C)(C)[C@H](C(O)C(=O)OC)[C@@]21C` (stereo partly drawn): the Kd was > 4 mM (inactive).

For `NC(=O)c1ccc(N2C(=O)CCC2=O)cc1Cl`, the Kd was > 4 mM (inactive).

Take `O=C(CC1SC(=O)NC1=O)Nc1ccccc1` (stereo not drawn): the Kd was > 4 mM (inactive).

Turning to `O=C(O)CCN1CCOCC1`, the Kd is > 4 mM (inactive).

In the case of `CC1=CCCC2C1(C)CCC(C)C2(C)CC/C(C)=C/C[n+]1cn(C)c2c(N)ncnc21` (stereo not drawn), the Kd is > 4 mM (inactive).

As to `OC(c1ccccc1)c1ccccn1` (stereo not drawn), the Kd is > 4 mM (inactive).

Turning to `CCNCC(O)c1ccc([N+](=O)[O-])cc1` (stereo not drawn), the Kd was > 4 mM (inactive).

For `Cn1nc(C(=O)Nc2cccnc2)cc1Cl`, the Kd is > 4 mM (inactive).

On to `Nc1cccc(C(=O)Nc2ccc(N)cc2Cl)c1`, for which the Kd was > 4 mM (inactive).

Regarding `CC1(C)CC(NC(=O)/C=C/C(=O)O)CC(C)(C)N1`, the Kd was > 4 mM (inactive).

With `O=c1cc(-c2ccccc2)oc2cc(O)c(O)c(O)c12`, the Kd was > 4 mM (inactive).

Regarding `Cc1cc(C)n(CCCC(=O)O)n1`, the Kd is > 4 mM (inactive).

`S=c1nc[nH]c2c1cnn2-c1ccccc1`: the Kd was > 4 mM (inactive).

On to `C/C=C/C(=O)Nc1ccc(NC(C)=O)cc1`, for which the Kd is > 4 mM (inactive).

On to `OCC(O)C(O)C(O)CO` (stereo not drawn), for which the Kd is > 4 mM (inactive).

Regarding `COc1cc(OC)c2c(=O)c(O)c(-c3ccc(OC)c(OC)c3)oc2c1`, the Kd was > 4 mM (inactive).

In the case of `CCCCNS(=O)(=O)c1ccc(OCC(=O)N2CCOCC2)cc1`, the Kd entry is “inactive”.

Take `Cc1cccnc1NC1=NCC(C)S1` (stereo not drawn): the Kd is > 4 mM (inactive).

With `Cc1ccccc1NC(=O)CC1SC(N)=NC1=O` (stereo not drawn), the Kd is > 4 mM (inactive).

`Cc1cc(=O)oc2c1c(C)nn2CN1CCN(C)CC1`: the Kd was > 4 mM (inactive).

Take `NC(=O)CC1NC(=O)c2ccccc21` (stereo not drawn): the Kd was > 4 mM (inactive).

In the case of `NC(=O)CSc1ccc(-c2ccco2)nn1`, the Kd is > 4 mM (inactive).

`CS(=O)(=O)Cc1ccccc1`: the Kd is > 4 mM (inactive).

`COc1ccc(C(=O)NCC(=O)O)cc1`: the Kd was > 4 mM (inactive).

For the compound `CCC(/C=C/[C@@H](C)[C@H]1CCC2C3CC=C4C[C@@H](O)CC[C@]4(C)C3CC[C@@]21C)C(C)C` (stereo partly drawn), the Kd was > 4 mM (inactive).

Regarding `O=C(CS(=O)(=O)c1ccccc1)Nc1nccs1`, the Kd was > 4 mM (inactive).

For `O=C(NCc1ccccn1)c1ccc(Cl)cc1Cl`, the Kd was > 4 mM (inactive).

With `Cc1cc(C)n2nc(Cc3ccccc3)nc2n1`, the Kd is > 4 mM (inactive).

Consider `CCN=Cc1c(O)n(-c2ccccc2C)c(=O)[nH]c1=O`, for which the Kd was > 4 mM (inactive).

On to `CSc1ccc(/C=c2\sc3ncnn3c2=O)cc1`, for which the Kd is > 4 mM (inactive).

Consider `O=C(O)C1CC(=O)N(CCc2ccc(Cl)cc2)C1` (stereo not drawn), for which the Kd was > 4 mM (inactive).

For the compound `Cc1ccc(OCC(=O)N2CCOCC2)c(C)c1`, the Kd entry was “inactive”.

`O=c1nc(N2CCCCC2)nc2n1CCO2`: the Kd was > 4 mM (inactive).

As to `Cc1onc(-c2ccccc2)c1CO`, the Kd is > 4 mM (inactive).

With `CC1(C)NC(=O)N(CN2CCOCC2)C1=O`, the Kd was > 4 mM (inactive).

Take `C=C[C@H]1CN2CC[C@H]1C[C@@H]2[C@@H](O)c1ccnc2ccc(OC)cc12`: the Kd is > 4 mM (inactive).

Consider `COc1cc(NC(=O)c2ccccc2)c(C)cc1N`, for which the Kd was > 4 mM (inactive).

Take `Cn1c(=O)c2c(n(C)c1=O)=NC1(CCCCC1)N=2`: the Kd was > 4 mM (inactive).

Turning to `COc1ccc(C(=O)NNC(=S)NC(C)=O)cc1`, the Kd is > 4 mM (inactive).

As to `O=C(O)c1csc(-c2cccnc2)n1`, the Kd was > 4 mM (inactive).

`Nc1nc(-c2ccccc2)cc(=O)[nH]1`: the Kd was > 4 mM (inactive).

Take `O=C1Cc2ccccc2N1c1ccccc1`: the Kd was > 4 mM (inactive).

Regarding `O=C(O)C1CSC(c2ccco2)N1` (stereo not drawn), the Kd was > 4 mM (inactive).

As to `C[C@H]1O[C@@H](O[C@H]2[C@@H](O)C[C@H](O[C@H]3[C@@H](O)C[C@H](O[C@H]4CC[C@]5(C)C6C[C@@H](O)[C@]7(C)[C@@H](C8=CC(=O)OC8)CC[C@]7(O)C6CC[C@@H]5C4)O[C@@H]3C)O[C@@H]2C)C[C@H](O)[C@@H]1O` (stereo partly drawn), the Kd is > 4 mM (inactive).

`O=c1c(-c2ccc(O)cc2)coc2cc(O)ccc12`: the Kd was > 4 mM (inactive).

For the compound `O=C(CNC(=O)c1cccs1)NC1=NCCS1`, the Kd is > 4 mM (inactive).

With `O=C(c1ccco1)N1CCCN(C(=O)c2ccco2)CC1`, the Kd is 0.072 mM and 0.277 mM.

As for `O=C(O)c1ccc2c(c1)OCO2`, the Kd is > 4 mM (inactive).

On to `O=C(NCc1ccccc1Br)c1ccco1`, for which the Kd is > 4 mM (inactive).

For the compound `CN(C)c1nc(N)nc(-c2nc3ccccc3s2)n1`, the Kd was > 4 mM (inactive).

Turning to `COc1ccc(/C=C2\SC(N)=NC2=O)cc1`, the Kd is > 4 mM (inactive).

On to `CC(=O)NC1C(=O)Nc2c(C)cc(C)cc21` (stereo not drawn), for which the Kd was > 4 mM (inactive).

Consider `O=C(O)C1(S(=O)(=O)c2ccccc2)CC1`, for which the Kd was > 4 mM (inactive).

`Cc1ccc(C)n1CCN1CCNCC1`: the Kd is > 4 mM (inactive).

Take `CC(=O)Nc1nc(C)c(C(C)=O)s1`: the Kd was > 4 mM (inactive).

Turning to `O=C1COc2ccccc2C(=O)N1`, the Kd is > 4 mM (inactive).

With `O=C(NCc1ccccc1)c1ccc[n+]([O-])c1`, the Kd was > 4 mM (inactive).

Regarding `CC(=O)c1cccc(N=C2NC(=O)CS2)c1`, the Kd is > 4 mM (inactive).

With `Cc1noc(C)c1CSc1nc2ccccc2[nH]1`, the Kd was 0.157 mM.

For `Cn1nnc2c(N3CCC(C(N)=O)CC3)ncnc21`, the Kd is > 4 mM (inactive).

As to `O=C(/C=C/c1ccco1)NC1=NCCS1`, the Kd was > 4 mM (inactive).

For `O=C(NC12CC3CC(CC(C3)C1)C2)c1cnccn1`, the Kd is > 4 mM (inactive).

Consider `N#CCc1nc2ccccc2s1`, for which the Kd is > 4 mM (inactive).

For `Cc1ccc(CCC(N)=O)o1`, the Kd was > 4 mM (inactive).

As to `O=C(c1ccccc1)c1ccc(N2CCNCC2)cc1`, the Kd is > 4 mM (inactive).

As to `COCc1cc(C)nc2sc(C(=O)OC)c(N)c12`, the Kd was > 4 mM (inactive).

For the compound `CCOc1cc(C)c(Cl)cc1S(=O)(=O)N(C)C`, the Kd is > 4 mM (inactive).

As to `COC1CC(O[C@H]2CC[C@]3(C=O)C4CC[C@]5(C)C(C6=CC(=O)OC6)CC[C@]5(O)C4CC[C@]3(O)C2)OC(C)C1O` (stereo partly drawn), the Kd is > 4 mM (inactive).

`O=C1NC(=O)C(c2ccccc2)C(=O)N1`: the Kd was > 4 mM (inactive).

For the compound `CCOc1ccc(C(=O)c2ccncc2)cc1`, the Kd was > 4 mM (inactive).

For the compound `Cc1cc(N)no1`, the Kd is > 4 mM (inactive).

Regarding `CC(C)NC(=O)c1cc(=O)n(C)c(=O)n1C`, the Kd was > 4 mM (inactive).

With `c1cncc(Nc2nc(-c3cccnc3)cs2)c1`, the Kd was > 4 mM (inactive).

With `O=C1CCCc2c(O)cccc21`, the Kd was > 4 mM (inactive).

In the case of `C=C[C@@](C)(O)CCC1C(=C)C[C@H](O)C2C(C)(C)CCCC12C` (stereo partly drawn), the Kd was > 4 mM (inactive).

As to `OC/C=C/c1ccc(O)c(O)c1`, the Kd was > 4 mM (inactive).

On to `COc1ccc2c(=O)c(CC(=O)O)coc2c1`, for which the Kd was > 4 mM (inactive).

With `CC1(C)CC2C1CCC1(C)OC1CCC2(C)O` (stereo not drawn), the Kd is > 4 mM (inactive).

Turning to `CCC(=O)Nc1cc(C(C)C)c(O)cc1C`, the Kd was > 4 mM (inactive).

Regarding `COC(=O)[C@]1(C)CCC[C@]2(C)c3ccc(C(C)C)cc3C(=O)CC12` (stereo partly drawn), the Kd is > 4 mM (inactive).

Take `NS(=O)(=O)c1ccc(N=C2NC(=O)CS2)cc1`: the Kd is > 4 mM (inactive).

With `O=C1CSC(=O)N1c1cccc(O)c1`, the Kd was > 4 mM (inactive).

`CC(=O)O[C@H]1C[C@@H](OC(C)=O)C(C)(C)C2C[C@@H](OC(C)=O)[C@]3(C)C(CC[C@@]4(C)[C@H](c5ccoc5)OC(=O)[C@H]5O[C@]543)[C@]21C` (stereo partly drawn): the Kd is > 4 mM (inactive).

On to `NC(=O)c1ccc(-c2ccccn2)s1`, for which the Kd was > 4 mM (inactive).

With `CCc1nnsc1C(=O)Nc1nccs1`, the Kd was > 4 mM (inactive).

As to `C=C(C)C1Cc2c(ccc(C(=O)O)c2O)O1` (stereo not drawn), the Kd was > 4 mM (inactive).

Take `COc1ccc(C)cc1S(N)(=O)=O`: the Kd is > 4 mM (inactive).

With `Cc1ccc2nc(SCC(=O)O)nc(C)c2c1`, the Kd was > 4 mM (inactive).

On to `CC(C)[C@@H]1CC[C@@H](C)C[C@H]1O`, for which the Kd is > 4 mM (inactive).

Regarding `CN1C2C[C@H](OC(=O)[C@H](CO)c3ccccc3)C[C@H]1[C@@H](O)C2`, the Kd is > 4 mM (inactive).

With `COc1ccc2nc(N)sc2c1`, the Kd is > 4 mM (inactive).

With `Cc1ccc2cc(N)ccc2n1`, the Kd was > 4 mM (inactive).

For `Cc1nnc(SCC(N)=O)c2ccccc12`, the Kd was > 4 mM (inactive).

As to `C=CCSCC=C`, the Kd is > 4 mM (inactive).

In the case of `COc1cc(CNC(=O)CCCC/C=C/C(C)C)ccc1O`, the Kd is > 4 mM (inactive).

Consider `O=C(c1cccs1)N1CCCc2ccccc21`, for which the Kd was > 4 mM (inactive).

As to `Cc1nc(-c2cccc(C(=O)O)c2)cs1`, the Kd was > 4 mM (inactive).

As for `O=C1NC(=O)C(=Cc2ccccc2)C(=O)N1`, the Kd is > 4 mM (inactive).
